How the values were obtained:
[1] = target: T1, c-Met (cytoplasmic domain) (Homo sapiens, UniProt P08581); assay: c-Met Kinase Assay (same methods as for ALK, with modifications); type: biochemical; conditions: 1 μM ATP (Km level); read-out: cMet Activity (c-Met Kinase Inhibition, IC50)
T1 construct: 10 ng/mL c-Met (cytoplasmic domain, Invitrogen Corporation #PV3143); purchased Invitrogen Corporation PV3143
Outline: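 This plate-based kinase format uses immobilized phospholipase C-γ as substrate, phosphorylated by c-Met cytoplasmic domain (10 ng/mL) at 37° C for 15 minutes.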

[2] = target: T2, baculovirus-expressed ALK (Homo sapiens, UniProt Q9UM73); assay: ALK Kinase Assay (ELISA-type, time-resolved fluorescence); type: biochemical; conditions: 1 μM ATP (Km level); read-out: ALK Activity (ALK Kinase Inhibition, IC50)
T2 construct: host or cells: baculovirus expression system
T2 sequence (Q9UM73 19-1620): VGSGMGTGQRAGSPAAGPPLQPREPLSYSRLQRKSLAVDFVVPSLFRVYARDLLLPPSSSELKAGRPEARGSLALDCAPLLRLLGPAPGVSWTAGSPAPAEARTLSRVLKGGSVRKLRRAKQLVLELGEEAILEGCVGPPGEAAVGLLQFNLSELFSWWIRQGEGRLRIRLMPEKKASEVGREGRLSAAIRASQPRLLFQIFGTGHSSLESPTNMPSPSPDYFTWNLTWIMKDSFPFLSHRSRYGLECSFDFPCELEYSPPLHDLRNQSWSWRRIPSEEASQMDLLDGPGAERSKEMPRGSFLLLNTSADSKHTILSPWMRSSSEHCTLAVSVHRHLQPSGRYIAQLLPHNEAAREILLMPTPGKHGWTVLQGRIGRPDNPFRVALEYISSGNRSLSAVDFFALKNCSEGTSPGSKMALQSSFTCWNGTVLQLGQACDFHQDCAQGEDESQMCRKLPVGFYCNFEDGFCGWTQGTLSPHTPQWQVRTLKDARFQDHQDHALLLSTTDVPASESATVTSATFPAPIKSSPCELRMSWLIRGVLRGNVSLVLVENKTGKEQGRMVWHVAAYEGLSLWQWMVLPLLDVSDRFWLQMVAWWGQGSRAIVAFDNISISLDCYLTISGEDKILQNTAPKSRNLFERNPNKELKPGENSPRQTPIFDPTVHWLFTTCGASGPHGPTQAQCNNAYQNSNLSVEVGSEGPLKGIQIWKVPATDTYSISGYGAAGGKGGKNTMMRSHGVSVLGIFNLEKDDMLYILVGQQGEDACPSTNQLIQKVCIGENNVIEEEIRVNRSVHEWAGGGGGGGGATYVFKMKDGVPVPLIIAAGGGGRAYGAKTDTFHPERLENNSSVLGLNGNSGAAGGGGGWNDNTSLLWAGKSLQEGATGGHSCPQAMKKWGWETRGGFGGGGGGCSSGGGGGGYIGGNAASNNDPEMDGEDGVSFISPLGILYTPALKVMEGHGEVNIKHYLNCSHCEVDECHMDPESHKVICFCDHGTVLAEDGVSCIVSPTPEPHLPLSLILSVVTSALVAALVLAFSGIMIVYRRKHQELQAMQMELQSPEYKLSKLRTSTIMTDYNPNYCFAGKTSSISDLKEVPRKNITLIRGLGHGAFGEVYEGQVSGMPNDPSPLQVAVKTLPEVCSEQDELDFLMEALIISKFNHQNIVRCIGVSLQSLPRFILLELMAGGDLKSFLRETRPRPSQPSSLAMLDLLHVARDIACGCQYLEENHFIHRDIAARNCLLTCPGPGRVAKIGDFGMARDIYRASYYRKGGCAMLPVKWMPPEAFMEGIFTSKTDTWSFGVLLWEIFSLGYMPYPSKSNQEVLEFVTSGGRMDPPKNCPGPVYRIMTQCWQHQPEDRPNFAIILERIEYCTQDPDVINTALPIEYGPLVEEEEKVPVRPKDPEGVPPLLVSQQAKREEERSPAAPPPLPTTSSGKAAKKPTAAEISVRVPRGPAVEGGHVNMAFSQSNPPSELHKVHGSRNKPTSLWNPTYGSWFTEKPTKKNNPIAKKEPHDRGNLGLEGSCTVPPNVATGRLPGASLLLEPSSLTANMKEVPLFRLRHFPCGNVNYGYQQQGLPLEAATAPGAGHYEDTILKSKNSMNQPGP
Outline: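 Substrate coating: phospholipase C-γ, 10 μg/mL in TBS. Kinase step: 30 ng/ml ALK, 15 min, 37° C. Detection and analysis: Eu-N1 PT66 antibody, with IC50 fitted as a sigmoidal variable-slope dose-response curve.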

T1 sequence (P08581 956-1390 limits assumed): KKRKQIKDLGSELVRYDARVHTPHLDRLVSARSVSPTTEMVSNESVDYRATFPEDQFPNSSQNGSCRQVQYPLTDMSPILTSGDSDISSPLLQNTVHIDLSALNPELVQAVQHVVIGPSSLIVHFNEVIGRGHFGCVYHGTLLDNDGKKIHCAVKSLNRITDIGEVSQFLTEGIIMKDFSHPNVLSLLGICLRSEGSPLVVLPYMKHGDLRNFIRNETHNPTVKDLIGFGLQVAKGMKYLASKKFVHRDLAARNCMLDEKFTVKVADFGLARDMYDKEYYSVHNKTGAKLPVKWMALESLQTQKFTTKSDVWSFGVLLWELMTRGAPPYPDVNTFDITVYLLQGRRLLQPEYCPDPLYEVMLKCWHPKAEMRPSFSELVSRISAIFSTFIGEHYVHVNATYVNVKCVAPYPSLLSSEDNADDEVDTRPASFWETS

SMILES	IC50 [1]	IC50 [2]
COc1cc2c(cc1Nc1ncc(Cl)c(Nc3ccc(N4CCN(C)CC4)cc3OC)n1)CCN(CC(C)(F)F)CC2 [Example 781, 5-Chloro-N*2*-[3-(2,2-difluoro-propyl)-8-methoxy-2,3,4,5-tetrahydro-1H-benzo[d]azepin-7-yl]-N*4*-[2-methoxy-4-(4-methyl-piperazin-1-yl)-phenyl]-pyrimidine-2,4-diamine]	> 10000 nM	< 100 nM
COc1cc2c(cc1Nc1ncc(Cl)c(N[C@H]3[C@@H](C(N)=O)[C@@H]4C=C[C@H]3C4)n1)CCN(CC(C)(F)F)CC2 [Example 782, (1S,2S,3R,4R)-3-{5-Chloro-2-[3-(2,2-difluoro-propyl)-8-methoxy-2,3,4,5-tetrahydro-1H-benzo[d]azepin-7-ylamino]-pyrimidin-4-ylamino}-bicyclo[2.2.1]hept-5-ene-2-carboxylic acid amide]	> 10000 nM	< 100 nM
CNC(=O)CN1CCc2cc(Nc3ncc(Cl)c(Nc4ccc(N5CCN(C)CC5)cc4OC)n3)c(OC)cc2CC1 [Example 783, 2-(7-{5-Chloro-4-[2-methoxy-4-(4-methyl-piperazin-1-yl)-phenylamino]-pyrimidin-2-ylamino}-8-methoxy-1,2,4,5-tetrahydro-benzo[d]azepin-3-yl)-N-methyl-acetamide]	> 10000 nM	< 100 nM
COc1cc2c(cc1Nc1ncc(Cl)c(N[C@@H]3CCCC[C@H]3NS(C)(=O)=O)n1)CCN(CC(C)(F)F)CC2 [Example 784, N-((1R,2R)-2-{5-Chloro-2-[3-(2,2-difluoro-propyl)-8-methoxy-2,3,4,5-tetrahydro-1H-benzo[d]azepin-7-ylamino]-pyrimidin-4-ylamino}-cyclohexyl)-methanesulfonamide]	> 10000 nM	< 100 nM
COc1cc2c(cc1Nc1ncc(Cl)c(Nc3cc(Cl)ccc3OC)n1)CCN(CC(C)(F)F)CC2 [Example 785, 5-Chloro-N*4*-(5-chloro-2-methoxy-phenyl)-N*2*-[3-(2,2-difluoro-propyl)-8-methoxy-2,3,4,5-tetrahydro-1H-benzo[d]azepin-7-yl]-pyrimidine-2,4-diamine]	> 10000 nM	100 to 1000 nM
CNC(=O)c1ccccc1Nc1nc(Nc2cc3c(cc2OC)CCN(CC(C)(F)F)CC3)ncc1Cl [Example 786, 2-{5-Chloro-2-[3-(2,2-difluoro-propyl)-8-methoxy-2,3,4,5-tetrahydro-1H-benzo[d]azepin-7-ylamino]-pyrimidin-4-ylamino}-N-methyl-benzamide]	> 10000 nM	< 100 nM
CCNC(=O)c1ccccc1Nc1nc(Nc2cc3c(cc2OC)CCN(CC(C)(F)F)CC3)ncc1Cl [Example 788, 2-{5-Chloro-2-[3-(2,2-difluoro-propyl)-8-methoxy-2,3,4,5-tetrahydro-1H-benzo[d]azepin-7-ylamino]-pyrimidin-4-ylamino}-N-ethyl-benzamide]	> 10000 nM	< 100 nM
CCNC(=O)c1cccc(F)c1Nc1nc(Nc2cc3c(cc2OC)CCN(CC(C)(F)F)CC3)ncc1Cl [Example 789, 2-{5-Chloro-2-[3-(2,2-difluoro-propyl)-8-methoxy-2,3,4,5-tetrahydro-1H-benzo[d]azepin-7-ylamino]-pyrimidin-4-ylamino}-N-ethyl-3-fluoro-benzamide]	1000 to 10000 nM	< 100 nM
COCCN1CCc2cc(Nc3ncc(Cl)c(Nc4ccc(N5CCN(C)CC5)cc4OC)n3)c(OC)cc2CC1 [Example 790, 5-Chloro-N*2*-[8-methoxy-3-(2-methoxy-ethyl)-2,3,4,5-tetrahydro-1H-benzo[d]azepin-7-yl]-N*4*-[2-methoxy-4-(4-methyl-piperazin-1-yl)-phenyl]-pyrimidine-2,4-diamine]	> 10000 nM	< 100 nM
COc1cc2c(cc1Nc1ncc(Cl)c(Nc3ccc(N4CCN(C)CC4)c(C)c3)n1)CCN(CC(=O)N(C)C)CC2 [Example 792, 2-(7-{5-Chloro-4-[3-methyl-4-(4-methyl-piperazin-1-yl)-phenylamino]-pyrimidin-2-ylamino}-8-methoxy-1,2,4,5-tetrahydro-benzo[d]azepin-3-yl)-N,N-dimethyl-acetamide]	> 10000 nM	< 100 nM
COc1cc2c(cc1Nc1ncc(F)c(Nc3ccc(N4CCN(C)CC4)cc3OC)n1)CCN(CC(=O)N(C)C)CC2 [Example 793, 2-(7-{5-Fluoro-4-[2-methoxy-4-(4-methyl-piperazin-1-yl)-phenylamino]-pyrimidin-2-ylamino}-8-methoxy-1,2,4,5-tetrahydro-benzo[d]azepin-3-yl)-N,N-dimethyl-acetamide]	> 10000 nM	< 100 nM
COc1cc2c(cc1Nc1ncc(Cl)c(Nc3ccc(N4CC5CC4CO5)cc3OC)n1)CCN(CC(=O)N(C)C)CC2 (stereo not shown) [Example 794, 2-(7-{5-Chloro-4-[2-methoxy-4-(2-oxa-5-aza-bicyclo[2.2.1]hept-5-yl)-phenylamino]-pyrimidin-2-ylamino}-8-methoxy-1,2,4,5-tetrahydro-benzo[d]azepin-3-yl)-N,N-dimethyl-acetamide]	> 10000 nM	< 100 nM
CCN1CC2CC1CN2c1ccc(Nc2nc(Nc3cc4c(cc3OC)CCN(CC(=O)N(C)C)CC4)ncc2Cl)c(OC)c1 (stereo not shown) [Example 795, 2-(7-{5-Chloro-4-[4-(5-ethyl-2,5-diaza-bicyclo[2.2.1]hept-2-yl)-2-methoxy-phenylamino]-pyrimidin-2-ylamino}-8-methoxy-1,2,4,5-tetrahydro-benzo[d]azepin-3-yl)-N,N-dimethyl-acetamide]	1000 to 10000 nM	< 100 nM
COc1cc2c(cc1Nc1ncc(Cl)c(Nc3ccc(N4CCOCC4)c(C)c3)n1)CCN(CC(=O)N(C)C)CC2 [Example 796, 2-{7-[5-Chloro-4-(3-methyl-4-morpholin-4-yl-phenylamino)-pyrimidin-2-ylamino]-8-methoxy-1,2,4,5-tetrahydro-benzo[d]azepin-3-yl}-N,N-dimethyl-acetamide]	> 10000 nM	< 100 nM
CNC(=O)CN1CCc2cc(Nc3ncc(F)c(Nc4ccc(N5CCN(C)CC5)cc4OC)n3)c(OC)cc2CC1 [Example 797, 2-(7-{5-Fluoro-4-[2-methoxy-4-(4-methyl-piperazin-1-yl)-phenylamino]-pyrimidin-2-ylamino}-8-methoxy-1,2,4,5-tetrahydro-benzo[d]azepin-3-yl)-N-methyl-acetamide]	> 10000 nM	< 100 nM
CNC(=O)CN1CCc2cc(Nc3ncc(Cl)c(Nc4ccc(N5CCN(C)CC5)c(C)c4)n3)c(OC)cc2CC1 [Example 798, 2-(7-{5-Chloro-4-[3-methyl-4-(4-methyl-piperazin-1-yl)-phenylamino]-pyrimidin-2-ylamino}-8-methoxy-1,2,4,5-tetrahydro-benzo[d]azepin-3-yl)-N-methyl-acetamide]	> 10000 nM	< 100 nM
COc1cc2c(cc1Nc1ncc(Cl)c(Nc3ccc(N4CCOCC4)cc3OC)n1)CCN(CC(N)=O)CC2 [Example 799, 2-{7-[5-Chloro-4-(2-methoxy-4-morpholin-4-yl-phenylamino)-pyrimidin-2-ylamino]-8-methoxy-1,2,4,5-tetrahydro-benzo[d]azepin-3-yl}-acetamide]	> 10000 nM	< 100 nM
COc1cc2c(cc1Nc1ncc(Cl)c(Nc3ccc(N4CCOCC4)cc3OC)n1)CCN(CC(=O)OC(C)C)CC2 [Example 800, {7-[5-Chloro-4-(2-methoxy-4-morpholin-4-yl-phenylamino)-pyrimidin-2-ylamino]-8-methoxy-1,2,4,5-tetrahydro-benzo[d]azepin-3-yl}-acetic acid isopropyl ester]	> 10000 nM	< 100 nM
COc1cc2c(cc1Nc1ncc(Cl)c(Nc3ccc(N4CCOCC4)cc3C)n1)CCN(CC(=O)N(C)C)CC2 [Example 801, 2-{7-[5-Chloro-4-(2-methyl-4-morpholin-4-yl-phenylamino)-pyrimidin-2-ylamino]-8-methoxy-1,2,4,5-tetrahydro-benzo[d]azepin-3-yl}-N,N-dimethyl-acetamide]	> 10000 nM	< 100 nM
COc1cc2c(cc1Nc1ncc(Cl)c(Nc3ccc(N4CCN(C)CC4)cc3C)n1)CCN(CC(=O)N(C)C)CC2 [Example 802, 2-(7-{5-Chloro-4-[2-methyl-4-(4-methyl-piperazin-1-yl)-phenylamino]-pyrimidin-2-ylamino}-8-methoxy-1,2,4,5-tetrahydro-benzo[d]azepin-3-yl)-N,N-dimethyl-acetamide]	> 10000 nM	< 100 nM
COc1cc2c(cc1Nc1ncc(Cl)c(Nc3ccc(N4CCOCC4)c(OC)c3)n1)CCN(CC(=O)N(C)C)CC2 [Example 803, 2-{7-[5-Chloro-4-(3-methoxy-4-morpholin-4-yl-phenylamino)-pyrimidin-2-ylamino]-8-methoxy-1,2,4,5-tetrahydro-benzo[d]azepin-3-yl}-N,N-dimethyl-acetamide]	> 10000 nM	< 100 nM
COc1cc2c(cc1Nc1ncc(Cl)c(Nc3ccc(N4CCN(C)CC4)c(OC)c3)n1)CCN(CC(=O)N(C)C)CC2 [Example 804, 2-(7-{5-Chloro-4-[3-methoxy-4-(4-methyl-piperazin-1-yl)-phenylamino]-pyrimidin-2-ylamino}-8-methoxy-1,2,4,5-tetrahydro-benzo[d]azepin-3-yl)-N,N-dimethyl-acetamide]	> 10000 nM	< 100 nM
COc1cc2c(cc1Nc1ncc(F)c(Nc3ccc(N4CCN(C)CC4)cc3OC)n1)CCN(CCS(C)(=O)=O)CC2 [Example 805, 5-Fluoro-N*2*-[3-(2-methanesulfonyl-ethyl)-8-methoxy-2,3,4,5-tetrahydro-1H-benzo[d]azepin-7-yl]-N*4*-[2-methoxy-4-(4-methyl-piperazin-1-yl)-phenyl]-pyrimidine-2,4-diamine]	> 10000 nM	< 100 nM
